From ChEMBL document CHEMBL4396887, “Five-Membered N-Heterocyclic Scaffolds as Novel Amino Bioisosteres at γ-Aminobutyric Acid (GABA) Type A Receptors and GABA Transporters” (J Med Chem, 2019) come the findings set out here.

Holding throughout (format): cell-based
The target in assay [1] is T1, GABA-A receptor; alpha-1/beta-2/gamma-2 (Homo sapiens, UniProt P14867+P18507+P47870).
T1 sequence (P14867 whole entry): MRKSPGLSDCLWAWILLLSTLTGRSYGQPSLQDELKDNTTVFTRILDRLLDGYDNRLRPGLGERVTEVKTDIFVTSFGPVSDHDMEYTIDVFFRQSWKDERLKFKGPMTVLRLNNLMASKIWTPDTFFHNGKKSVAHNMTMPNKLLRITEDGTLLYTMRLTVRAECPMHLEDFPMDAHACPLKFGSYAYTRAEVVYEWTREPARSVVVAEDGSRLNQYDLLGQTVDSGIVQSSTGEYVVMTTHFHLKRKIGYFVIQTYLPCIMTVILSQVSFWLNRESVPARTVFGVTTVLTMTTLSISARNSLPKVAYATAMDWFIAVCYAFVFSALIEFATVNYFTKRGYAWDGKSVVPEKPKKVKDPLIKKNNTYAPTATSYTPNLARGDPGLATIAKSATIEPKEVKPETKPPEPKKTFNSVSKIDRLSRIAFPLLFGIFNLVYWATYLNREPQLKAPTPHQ
T1 sequence (P47870 whole entry): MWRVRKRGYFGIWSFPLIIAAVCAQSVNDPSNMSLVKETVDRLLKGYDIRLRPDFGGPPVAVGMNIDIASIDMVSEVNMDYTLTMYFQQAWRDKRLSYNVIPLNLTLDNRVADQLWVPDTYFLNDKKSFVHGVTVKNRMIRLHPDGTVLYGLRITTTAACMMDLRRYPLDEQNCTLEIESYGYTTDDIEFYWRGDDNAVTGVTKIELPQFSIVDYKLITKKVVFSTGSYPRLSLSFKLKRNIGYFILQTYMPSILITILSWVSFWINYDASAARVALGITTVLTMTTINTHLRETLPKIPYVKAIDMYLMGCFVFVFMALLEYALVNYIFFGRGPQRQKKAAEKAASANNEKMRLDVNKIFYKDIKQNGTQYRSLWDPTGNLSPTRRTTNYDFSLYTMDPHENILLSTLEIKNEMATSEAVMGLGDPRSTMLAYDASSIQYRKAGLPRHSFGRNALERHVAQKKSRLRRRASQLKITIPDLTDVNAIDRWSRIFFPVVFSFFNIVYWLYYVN
T1 sequence (P18507 whole entry): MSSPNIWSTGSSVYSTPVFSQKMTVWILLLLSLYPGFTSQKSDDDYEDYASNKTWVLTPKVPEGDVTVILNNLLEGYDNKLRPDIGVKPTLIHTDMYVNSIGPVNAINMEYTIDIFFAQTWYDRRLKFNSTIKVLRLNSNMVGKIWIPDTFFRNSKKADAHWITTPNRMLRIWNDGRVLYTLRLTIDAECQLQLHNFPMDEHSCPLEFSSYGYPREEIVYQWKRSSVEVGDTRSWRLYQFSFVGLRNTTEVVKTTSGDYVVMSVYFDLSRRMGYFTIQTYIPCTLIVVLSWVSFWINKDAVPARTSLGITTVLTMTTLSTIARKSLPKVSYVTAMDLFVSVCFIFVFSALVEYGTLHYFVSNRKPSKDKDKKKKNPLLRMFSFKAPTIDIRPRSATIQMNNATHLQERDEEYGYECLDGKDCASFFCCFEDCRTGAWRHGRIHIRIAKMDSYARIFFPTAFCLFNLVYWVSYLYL
Kind of assay: Agonist activity at recombinant human GABA-A alpha1beta2gamma2S receptor transiently expressed in human tsA201 cells incubated for 30 mins and measured up to 90 secs by FMP dye based FLIPR membrane potential blue assay.

Assay [2] has as its target T2, Sodium- and chloride-dependent GABA transporter 3 (Homo sapiens, UniProt P48066).
T2 sequence (P48066 whole entry): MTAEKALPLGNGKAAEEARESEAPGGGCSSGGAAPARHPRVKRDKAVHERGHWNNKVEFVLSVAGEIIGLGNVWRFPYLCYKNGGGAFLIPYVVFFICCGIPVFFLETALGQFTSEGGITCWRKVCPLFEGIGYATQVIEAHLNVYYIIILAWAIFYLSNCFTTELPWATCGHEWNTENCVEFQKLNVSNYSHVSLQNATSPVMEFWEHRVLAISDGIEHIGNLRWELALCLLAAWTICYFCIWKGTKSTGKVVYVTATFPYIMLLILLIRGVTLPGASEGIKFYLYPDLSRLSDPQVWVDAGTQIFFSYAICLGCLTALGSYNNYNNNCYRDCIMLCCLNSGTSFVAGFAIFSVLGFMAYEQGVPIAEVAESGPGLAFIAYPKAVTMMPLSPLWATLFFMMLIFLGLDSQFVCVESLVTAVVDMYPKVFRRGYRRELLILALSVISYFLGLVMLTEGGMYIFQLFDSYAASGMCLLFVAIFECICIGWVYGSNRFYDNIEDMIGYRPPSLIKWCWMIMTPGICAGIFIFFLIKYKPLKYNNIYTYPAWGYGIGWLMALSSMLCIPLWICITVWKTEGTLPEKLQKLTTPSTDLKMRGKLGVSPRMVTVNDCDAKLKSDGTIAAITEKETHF
Put plainly: Inhibition of human GAT3 expressed in Flp-In CHO cells assessed as reduction in [3H]GABA uptake incubated for 3 mins by liquid scintillation counting method.

In assay [3] the target is T3, Sodium- and chloride-dependent betaine transporter (Homo sapiens, UniProt P48065).
T3 sequence (P48065 whole entry): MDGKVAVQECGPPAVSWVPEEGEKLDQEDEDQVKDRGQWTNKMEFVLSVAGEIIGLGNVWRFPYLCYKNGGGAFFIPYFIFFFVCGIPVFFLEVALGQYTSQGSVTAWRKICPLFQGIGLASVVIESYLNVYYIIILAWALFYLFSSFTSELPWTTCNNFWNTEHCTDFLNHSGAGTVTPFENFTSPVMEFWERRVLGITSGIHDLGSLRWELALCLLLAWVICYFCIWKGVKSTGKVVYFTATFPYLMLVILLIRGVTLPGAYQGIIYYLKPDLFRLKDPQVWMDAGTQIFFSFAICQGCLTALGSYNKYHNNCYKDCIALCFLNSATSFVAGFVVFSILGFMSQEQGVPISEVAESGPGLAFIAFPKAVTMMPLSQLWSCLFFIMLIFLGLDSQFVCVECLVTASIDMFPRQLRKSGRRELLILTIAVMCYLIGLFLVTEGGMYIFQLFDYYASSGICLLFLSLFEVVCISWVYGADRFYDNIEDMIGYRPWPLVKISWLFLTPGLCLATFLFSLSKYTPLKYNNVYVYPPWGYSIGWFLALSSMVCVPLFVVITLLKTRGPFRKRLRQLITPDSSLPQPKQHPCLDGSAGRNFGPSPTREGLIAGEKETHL
Kind of assay: Inhibition of human BGT1 expressed in Flp-In CHO cells assessed as reduction in [3H]GABA uptake incubated for 3 mins by liquid scintillation counting method.

Assay [4] addresses T4, Sodium- and chloride-dependent betaine transporter (Homo sapiens) (UniProt P48065).
T4 sequence (whole entry): T3 sequence (P48065 whole entry)
Kind of assay: Inhibition of human BGT1 expressed in Flp-In CHO cells assessed as reduction in [3H]GABA uptake at 100 uM incubated for 3 mins by liquid scintillation counting method relative to control.

As to `NC1=NC(CC(=O)O)CS1` (stereo unspecified), the EC50 – broadly, the concentration giving half of the maximal effect – in assay [1] amounted to 1.8 µM. The IC50 in assay [2] (read-out: IC50) is 151 µM; in assay [2] (read-out: pIC50 (converted)), 126 µM; in assay [3] (read-out: IC50) it was 47.4 µM. The inhibition (usually how much of the control response was suppressed) in assay [4] was more than 30%.
With `O=C(O)C[C@H]1CCNC1`, the EC50 in assay [1] was found to be 12 µM. Also, the IC50 in assay [2] (read-out: IC50) was 2.3 µM; in assay [3] (read-out: IC50) it was 9.9 µM; in assay [3] (read-out: pIC50 (converted)) it was 7.94 µM. The inhibition in assay [4] is more than 30%.
With `CC(C(=O)O)C1CSC(N)=N1` (stereo in doubt; l-10a), in assay [1], the EC50 worked out at 25 µM. Further, the IC50 in assay [2] (read-out: IC50) and in assay [3] (read-out: IC50) was more than 100 µM each time.
On to `C[C@@H](C(=O)O)[C@H]1CSC(N)=N1` (relative stereo), for which, in assay [1], the EC50 turned out to be 48 µM. For the same compound, the IC50 in assay [2] (read-out: IC50) and in assay [3] (read-out: IC50) was more than 100 µM in each case. Besides, the inhibition in assay [4] is more than 30%.
For the compound `C[C@@H]1SC(N)=N[C@@H]1CC(=O)O` (relative stereo), the IC50 in assay [2] (read-out: IC50) and in assay [3] (read-out: IC50) was more than 100 µM throughout. For the same compound, in assay [4], the inhibition is more than 30%.
Take `C[C@H]1SC(N)=N[C@@H]1CC(=O)O` (relative stereo): the IC50 in assay [2] (read-out: IC50) and in assay [3] (read-out: IC50) was more than 100 µM in each case. Besides, the inhibition in assay [4] is more than 30%.
As for `O=C(O)CC1CNC=N1` (stereo unspecified), in assay [1], the EC50 was found to be 7.6 µM. For the same compound, the results for the IC50 in assay [2] (read-out: IC50) and in assay [3] (read-out: IC50) were 1.9 µM and 7.3 µM, respectively. Moreover, the inhibition in assay [4] was more than 30%.
As to `O=C(O)C[C@@H]1CCNC1`, the IC50 is 2.7 µM in assay [2] (read-out: IC50), 5 µM in assay [3] (read-out: IC50) and 3.98 µM in assay [3] (read-out: pIC50 (converted)). Also, the inhibition in assay [4] is more than 30%.
Turning to `CC(C(=O)O)C1CSC(N)=N1` (stereo in doubt; l-10b), the IC50 in assay [2] (read-out: IC50) and in assay [3] (read-out: IC50) was more than 100 µM each time.
In the case of `NC1=NC(CC(=O)O)CN1` (stereo unspecified), the EC50 in assay [1] stood at 11 µM. Besides, the IC50 in assay [2] (read-out: IC50) turned out to be 43.7 µM; in assay [3] (read-out: IC50), 3 µM. Further, the inhibition in assay [4] is more than 30%.
In the same order, the values of `C[C@@H](C(=O)O)[C@@H]1CSC(N)=N1` (relative stereo) are 9.7 µM, more than 100 µM, more than 100 µM and more than 30%.
